In article PMC10384010, “Chromatographic Data in Statistical Analysis of BBB Permeability Indices” (Membranes, 2023):

Assays:
[1] = plasma protein binding, given as fraction; ref Drugbank; cited from earlier work
[2] = Normal-phase TLC on silica gel 60 F254 (Rf); assay type: physicochemical; settings: water:methanol:acetonitrile 60:20:20, ammonium acetate pH 7.4
Experimental: (§1) The purity of the isolated substances was checked by TLC chromatography and densitometric scanning.
(§2) APIs were subjected to chromatographic in column (HPLC) and thin layer (TLC) formats. TLC chromatography was carried out on 20 cm × 20 cm glass plates by Merck, covered with silica gel and the addition of a fluorescent indicator. Merck TLC silica gel 60 F254 was used for the normal phase (NP). In the reverse phase (RP), RP-2 silanized plates were used (Merck TLC Silica gel 60 RP-2 F254, silanized). The mobile phase was buffered with ammonium acetate to pH 7.4 (LACH-NER, ammonium acetate).
(§3) Plates, after developing the chromatograms, were scanned using a densitometer (Desaga CD 60) with an analytical wavelength selected individually for drugs. The values of Rf (molecular descriptors: NP, RP) were determined.

[3] = entering the CNS / not entering the CNS; ref Drugbank [36]; cited from earlier work
[4] = Reversed-phase TLC on RP-2 silanized plates (Rf); assay type: physicochemical; settings: silica gel 60 RP-2 F254 silanized; water:methanol:acetonitrile 60:20:20, ammonium acetate pH 7.4
Experimental: as §1, §2, §3

[5] = HPLC on IAM (immobilized artificial membrane) column, retention factor; assay type: physicochemical; settings: IAM.PC.DD.2 column; for k(IAM) retention factor: 10 mM phosphate buffer pH 7.4:acetonitrile 80:20; for logkIAM: logarithm of retention factor, phosphate buffer pH 7.4:acetonitrile 80:20
Experimental: Chromatographic data also came from an experiment with a HPLC IAM (immobilized artificial membrane) column (Regis Technologies Inc.: IAM.PC.DD.2, 10 µm; 4.6 mm × 10 mm). The column contains a standard membrane consisting of a phospholipid bilayer. Organic solvents (acetonitrile and methanol) and water (J.T. Baker HPLC) were used in HPLC. Sigma phosphate buffered saline tablets were used to prepare the phosphate buffer. The mobile phase was a mixture of 10 mM phosphate buffer at pH 7.4 and acetonitrile in the ratio of 80:20 (v/v) [35]. The mobile phase flow was set at 0.5 mL/min; detection was carried out with a UV–Vis detector. The obtained values of the retention factor (k IAM) were transformed into a logarithmic form and entered into the statistical analysis (descriptor: log k IAM).

## CN1CCC(=C2c3ccccc3C=Cc3ccccc32)CC1 [cyproheptadine]
[1]
  PB (protein binding): 0.975
[2]
  NP (Rf from NP TLC plate): 0.45
[3]
  CNS+/-: 1
[4]
  RP (Rf from RP-2 TLC plate): 0.45
[5]
  k(IAM) retention factor: 23.79
  logkIAM: 1.38

## CC(=O)Oc1ccccc1C(=O)O [acetylsalicylic acid]
[1]
  PB (protein binding): 0.995
[2]
  NP (Rf from NP TLC plate): 0.89
[3]
  CNS+/-: 1
[4]
  RP (Rf from RP-2 TLC plate): 0.98
[5]
  k(IAM) retention factor: 0.03
  logkIAM: -1.52

## OCCOCCN1CCN(C(c2ccccc2)c2ccc(Cl)cc2)CC1 (stereo not shown) [hydroxyzine]
[1]
  PB (protein binding): 0.93
[2]
  NP (Rf from NP TLC plate): 0.55
[3]
  CNS+/-: 1
[5]
  k(IAM) retention factor: 13.82
  logkIAM: 1.14

## Cc1ccc(S(=O)(=O)NC(=O)NN2CC3CCCC3C2)cc1 (stereo not shown) [gliclazide]
[1]
  PB (protein binding): 0.94
[2]
  NP (Rf from NP TLC plate): 0.95
[3]
  CNS+/-: 1
[4]
  RP (Rf from RP-2 TLC plate): 0.83
[5]
  k(IAM) retention factor: 0.28
  logkIAM: -0.55

## CC(CN1c2ccccc2Sc2ccccc21)N(C)C (stereo not shown) [promethazine]
[1]
  PB (protein binding): 0.93
[2]
  NP (Rf from NP TLC plate): 0.43
[3]
  CNS+/-: 1
[4]
  RP (Rf from RP-2 TLC plate): 0.49
[5]
  k(IAM) retention factor: 14.96
  logkIAM: 1.17

## COC(=O)[C@@H]1CC2=CC(=O)CC[C@]2(C)[C@@]23O[C@@H]2C[C@@]2(C)[C@@H](CC[C@@]24CCC(=O)O4)[C@H]13 [eplerenone]
[1]
  PB (protein binding): 0.5
[2]
  NP (Rf from NP TLC plate): 0.94
[3]
  CNS+/-: 1
[4]
  RP (Rf from RP-2 TLC plate): 0.84
[5]
  k(IAM) retention factor: 1.54
  logkIAM: 0.19

## Clc1cccc(Cl)c1N=C1NCCN1 [clonidine]
[1]
  PB (protein binding): 0.3
[2]
  NP (Rf from NP TLC plate): 0.49
[3]
  CNS+/-: 1
[4]
  RP (Rf from RP-2 TLC plate): 0.73
[5]
  k(IAM) retention factor: 2.83
  logkIAM: 0.45

## O=C1Nc2ccc(Cl)cc2C(c2ccccc2Cl)=NC1O (stereo not shown) [lorazepam]
[1]
  PB (protein binding): 0.87
[3]
  CNS+/-: 1
[5]
  k(IAM) retention factor: 9.04
  logkIAM: 0.96

## CO/N=C(\C(=O)N[C@@H]1C(=O)N2C(C(=O)O)=C(COC(N)=O)CS[C@H]12)c1ccco1 [cefuroxime]
[1]
  PB (protein binding): 0.5
[2]
  NP (Rf from NP TLC plate): 0.97
[3]
  CNS+/-: 0
[4]
  RP (Rf from RP-2 TLC plate): 0.88
[5]
  k(IAM) retention factor: 1.69
  logkIAM: 0.23

## CC(C)(C)NC[C@H](O)COc1nsnc1N1CCOCC1 [timolol]
[1]
  PB (protein binding): 0.1
[2]
  NP (Rf from NP TLC plate): 0.34
[3]
  CNS+/-: 0
[4]
  RP (Rf from RP-2 TLC plate): 0.97

## COc1cc(N)c(Cl)cc1C(=O)NC1CCN(CCCOc2ccc(F)cc2)CC1OC (stereo not shown) [cisapride]
[1]
  PB (protein binding): 0.975
[2]
  NP (Rf from NP TLC plate): 0.64
[3]
  CNS+/-: 1
[4]
  RP (Rf from RP-2 TLC plate): 0.65
[5]
  k(IAM) retention factor: 57.99
  logkIAM: 1.76

## Cc1ccc(-c2cc(C(F)(F)F)nn2-c2ccc(S(N)(=O)=O)cc2)cc1 [celecoxib]
[1]
  PB (protein binding): 0.97
[2]
  NP (Rf from NP TLC plate): 0.98
[3]
  CNS+/-: 1
[4]
  RP (Rf from RP-2 TLC plate): 0.75
[5]
  k(IAM) retention factor: 50.01
  logkIAM: 1.70

## COc1ccccc1OCCNCC(O)COc1cccc2[nH]c3ccccc3c12 (stereo not shown) [carvedilol]
[1]
  PB (protein binding): 0.98
[2]
  NP (Rf from NP TLC plate): 0.73
[3]
  CNS+/-: 0

## CCOC(=O)[C@H](CCc1ccccc1)N[C@@H](C)C(=O)N1Cc2ccccc2C[C@H]1C(=O)O [quinapril]
[1]
  PB (protein binding): 0.97
[2]
  NP (Rf from NP TLC plate): 0.44
[3]
  CNS+/-: 0
[4]
  RP (Rf from RP-2 TLC plate): 0.57
[5]
  k(IAM) retention factor: 1.22
  logkIAM: 0.09

## NC(=O)N1c2ccccc2CC(=O)c2ccccc21 [oxcarbamazepine]
[1]
  PB (protein binding): 0.4
[2]
  NP (Rf from NP TLC plate): 0.91
[3]
  CNS+/-: 1
[4]
  RP (Rf from RP-2 TLC plate): 0.91

## CN(C)CCCN1c2ccccc2Sc2ccccc21 [promazine]
[1]
  PB (protein binding): 0.94
[2]
  NP (Rf from NP TLC plate): 0.39
[3]
  CNS+/-: 1
[4]
  RP (Rf from RP-2 TLC plate): 0.51
[5]
  k(IAM) retention factor: 0.10
  logkIAM: -1.02

## CN/C(=N/CCSCc1nc[nH]c1C)NC#N [cimetidine]
[1]
  PB (protein binding): 0.17
[2]
  NP (Rf from NP TLC plate): 0.64
[3]
  CNS+/-: 0
[4]
  RP (Rf from RP-2 TLC plate): 0.88
[5]
  k(IAM) retention factor: 0.26
  logkIAM: -0.58

## CN1C(C(=O)Nc2ccccn2)=C(O)c2ccccc2S1(=O)=O [piroxicam]
[1]
  PB (protein binding): 0.99
[2]
  NP (Rf from NP TLC plate): 0.98
[3]
  CNS+/-: 0
[4]
  RP (Rf from RP-2 TLC plate): 0.58
[5]
  k(IAM) retention factor: 0.16
  logkIAM: -0.79

## COc1ccc(CCN2CCC(Nc3nc4ccccc4n3Cc3ccc(F)cc3)CC2)cc1 [astemizol]
[1]
  PB (protein binding): 0.967
[2]
  NP (Rf from NP TLC plate): 0.62
[3]
  CNS+/-: 1
[4]
  RP (Rf from RP-2 TLC plate): 0.65
[5]
  k(IAM) retention factor: 26.27
  logkIAM: 1.42

## CCCCN1CCCCC1C(=O)Nc1c(C)cccc1C (stereo not shown) [bupivacaine]
[1]
  PB (protein binding): 0.95
[2]
  NP (Rf from NP TLC plate): 0.67
[3]
  CNS+/-: 1
[4]
  RP (Rf from RP-2 TLC plate): 0.74

## CCOC(=O)[C@H](CCc1ccccc1)N[C@@H](C)C(=O)N1CCC[C@H]1C(=O)O [enalapril]
[1]
  PB (protein binding): 0.55
[2]
  NP (Rf from NP TLC plate): 0.33
[3]
  CNS+/-: 0
[4]
  RP (Rf from RP-2 TLC plate): 0.6
[5]
  k(IAM) retention factor: 0.05
  logkIAM: -1.29

## C[C@](N)(Cc1ccc(O)c(O)c1)C(=O)O [methyldopa]
[1]
  PB (protein binding): 0.2
[2]
  NP (Rf from NP TLC plate): 0.38
[3]
  CNS+/-: 0
[4]
  RP (Rf from RP-2 TLC plate): 0.85
[5]
  k(IAM) retention factor: 0.10
  logkIAM: -1.02

## CC[C@@H](C(N)=O)N1CCCC1=O [levetiracetam]
[1]
  PB (protein binding): 0.1
[2]
  NP (Rf from NP TLC plate): 0.92
[3]
  CNS+/-: 1
[4]
  RP (Rf from RP-2 TLC plate): 0.92

## OCCN1CCN(CCC=C2c3ccccc3Sc3ccc(C(F)(F)F)cc32)CC1 [flupenthixol]
[1]
  PB (protein binding): 0.95
[2]
  NP (Rf from NP TLC plate): 0.51
[3]
  CNS+/-: 1
[4]
  RP (Rf from RP-2 TLC plate): 0.66
[5]
  k(IAM) retention factor: 51.21
  logkIAM: 1.71

## CN1C(=O)CC(=O)N(c2ccccc2)c2cc(Cl)ccc21 [clobazam]
[1]
  PB (protein binding): 0.85
[2]
  NP (Rf from NP TLC plate): 0.95
[3]
  CNS+/-: 1
[4]
  RP (Rf from RP-2 TLC plate): 0.79
[5]
  k(IAM) retention factor: 2.58
  logkIAM: 0.41

## COc1ccnc(C[S+]([O-])c2nc3ccc(OC(F)F)cc3[nH]2)c1OC (stereo not shown) [pantoprazole]
[1]
  PB (protein binding): 0.98
[2]
  NP (Rf from NP TLC plate): 0.93
[3]
  CNS+/-: 0
[4]
  RP (Rf from RP-2 TLC plate): 0.85
[5]
  k(IAM) retention factor: 2.19
  logkIAM: 0.34

## OCCN1CCN(CC/C=C2/c3ccccc3Sc3ccc(Cl)cc32)CC1 [zuclopenthixol]
[1]
  PB (protein binding): 0.985
[2]
  NP (Rf from NP TLC plate): 0.47
[3]
  CNS+/-: 1
[5]
  k(IAM) retention factor: 48.73
  logkIAM: 1.69

## CCC(C)n1ncn(-c2ccc(N3CCN(c4ccc(OCC5COC(Cn6cncn6)(c6ccc(Cl)cc6Cl)O5)cc4)CC3)cc2)c1=O (stereo not shown) [itraconazole]
[1]
  PB (protein binding): 0.998
[2]
  NP (Rf from NP TLC plate): 0.96
[3]
  CNS+/-: 0
[4]
  RP (Rf from RP-2 TLC plate): 0.86

## C[C@H]1c2cccc(O)c2C(=O)C2=C(O)[C@]3(O)C(=O)C(C(N)=O)=C(O)[C@@H](N(C)C)[C@@H]3[C@@H](O)[C@@H]21 [doxycycline]
[1]
  PB (protein binding): 0.9
[2]
  NP (Rf from NP TLC plate): 0.06
[3]
  CNS+/-: 0
[4]
  RP (Rf from RP-2 TLC plate): 0.08
[5]
  k(IAM) retention factor: 1.76
  logkIAM: 0.24

## CCC[C@@H]1C[C@@H](C(=O)N[C@@H]([C@H]2O[C@H](SC)[C@H](O)[C@@H](O)[C@H]2O)[C@@H](C)O)N(C)C1 [lincomycin]
[1]
  PB (protein binding): 0.7
[2]
  NP (Rf from NP TLC plate): 0.91
[3]
  CNS+/-: 0

## Nc1ccc(O)c(C(=O)O)c1 [mesalazine]
[1]
  PB (protein binding): 0.43
[3]
  CNS+/-: 0
[4]
  RP (Rf from RP-2 TLC plate): 0.99

## CCOC(=O)C1=C(C)NC(C)=C(C(=O)OC)C1c1cccc([N+](=O)[O-])c1 (stereo not shown) [nitrendipine]
[1]
  PB (protein binding): 0.99
[2]
  NP (Rf from NP TLC plate): 0.97
[3]
  CNS+/-: 0
[4]
  RP (Rf from RP-2 TLC plate): 0.86

## NS(=O)(=O)c1cc(C2(O)NC(=O)c3ccccc32)ccc1Cl (stereo not shown) [chlortalidone]
[1]
  PB (protein binding): 0.75
[2]
  NP (Rf from NP TLC plate): 0.96
[3]
  CNS+/-: 1
[5]
  k(IAM) retention factor: 1.32
  logkIAM: 0.12

## CC(C)NCC(O)c1ccc(NS(C)(=O)=O)cc1 (stereo not shown) [sotalol]
[2]
  NP (Rf from NP TLC plate): 0.48
[3]
  CNS+/-: 1
[4]
  RP (Rf from RP-2 TLC plate): 0.85
[5]
  k(IAM) retention factor: 1.35
  logkIAM: 0.13

## O=C(c1ccccc1)c1ccc2n1CCC2C(=O)O (stereo not shown) [ketorolac]
[1]
  PB (protein binding): 0.99
[2]
  NP (Rf from NP TLC plate): 0.92
[3]
  CNS+/-: 1
[4]
  RP (Rf from RP-2 TLC plate): 0.96

## CCCc1nn(C)c2c(=O)[nH]c(-c3cc(S(=O)(=O)N4CCN(C)CC4)ccc3OCC)nc12 [sildenafil]
[2]
  NP (Rf from NP TLC plate): 0.69
[3]
  CNS+/-: 1
[4]
  RP (Rf from RP-2 TLC plate): 0.77
[5]
  k(IAM) retention factor: 14.26
  logkIAM: 1.15

## COc1ccc2c(c1)c(CC(=O)O)c(C)n2C(=O)c1ccc(Cl)cc1 [indomethacin]
[1]
  PB (protein binding): 0.97
[3]
  CNS+/-: 1
[5]
  k(IAM) retention factor: 1.08
  logkIAM: 0.03
